In ChEMBL document CHEMBL4808247 (Bioorg Med Chem, 2021):

Columns and labels:
[1] = tested on: Escherichia coli; experiment: Antibacterial activity against Escherichia coli SR34100 producing class A beta-lactamase, CTX-M-15 assessed as reduction in microbial growth incubated for 16 to 20 hrs by broth microdilution method; format: functional; details: time 16-20 hrs
[2] = tested on: Klebsiella pneumoniae; experiment: Antibacterial activity against Klebsiella pneumoniae PLE producing class D beta-lactamase, OXA-48 assessed as reduction in microbial growth incubated for 16 to 20 hrs by broth microdilution method; format: functional; details: time 16-20 hrs
[3] = tested on: Enterobacter cloacae; experiment: Antibacterial activity against Enterobacter cloacae IR32 producing class B beta-lactamase, NDM1 assessed as reduction in microbial growth incubated for 16 to 20 hrs by broth microdilution method; format: functional; details: time 16-20 hrs
[4] = tested on: Escherichia coli; experiment: Antibacterial activity against Escherichia coli NIHJ JC-2 assessed as reduction in microbial growth incubated for 16 to 20 hrs by broth microdilution method; format: functional; details: time 16-20 hrs
[5] = tested on: Klebsiella pneumoniae; experiment: Antibacterial activity against Klebsiella pneumoniae JMI:211 producing class A beta-lactamase, KPC-2 assessed as reduction in microbial growth incubated for 16 to 20 hrs by broth microdilution method; format: functional; details: time 16-20 hrs
[6] = tested on: Enterobacter cloacae; experiment: Antibacterial activity against Enterobacter cloacae SR36276 producing class C beta-lactamase, AmpC assessed as reduction in microbial growth incubated for 16 to 20 hrs by broth microdilution method; format: functional; details: time 16-20 hrs
[7] = tested on: Klebsiella pneumoniae; experiment: Antibacterial activity against Klebsiella pneumonia ATCC 13883 infected in cyclophosphamide-induced neutropenic Jcl:ICR mouse model assessed as log10 reduction in CFU at 10 mg/kg, sc administered at 2, 5 and 8 hrs after infection and measured at 10 hrs after infection; format: functional
[8] = Inhibition of CMY-2 in Escherichia coil BL21 assessed as inhibition of nitrocefin hydrolysis measured every 3 mins for 15 mins by UV spectrophotometer analysis; set-up: species or system Escherichia coli BL21
[9] = tested on: Enterobacterales; experiment: Antimicrobial activity against Enterobacterales producing OXA-48 assessed as reduction in microbial growth measured after 16 to 20 hrs by broth microdilution method; format: functional; details: time 16-20 hrs
[10] = tested on: Enterobacter cloacae; experiment: Antibacterial activity against Enterobacter cloacae 1,261,347 producing class A beta lactamase, PER-2 assessed as reduction in microbial growth incubated for 16 to 20 hrs by broth microdilution method; format: functional; details: time 16-20 hrs
[11] = tested on: Klebsiella pneumoniae; experiment: Antibacterial activity against Klebsiella pneumonia ATCC 13883 infected in cyclophosphamide-induced neutropenic Jcl:ICR mouse model assessed as log10 reduction in CFU at 3 mg/kg, sc administered at 2, 5 and 8 hrs after infection and measured at 10 hrs after infection; format: functional
[12] = tested on: Enterobacterales; experiment: Antimicrobial activity against Enterobacterales producing NDM assessed as reduction in microbial growth measured after 16 to 20 hrs by broth microdilution method; format: functional; details: time 16-20 hrs
[13] = tested on: Enterobacterales; experiment: Antimicrobial activity against Enterobacterales producing KPC assessed as reduction in microbial growth measured after 16 to 20 hrs by broth microdilution method; format: functional; details: time 16-20 hrs
[14] = tested on: Enterobacterales; experiment: Antimicrobial activity against Enterobacterales producing VIM assessed as reduction in microbial growth measured after 16 to 20 hrs by broth microdilution method; format: functional; details: time 16-20 hrs
[15] = tested on: Klebsiella pneumoniae; experiment: Antibacterial activity against Klebsiella pneumoniae ATCC13883 assessed as reduction in microbial growth incubated for 16 to 20 hrs by broth microdilution method; format: functional; details: time 16-20 hrs

Row | Structure (SMILES) | MIC [1] [µg/mL] | MIC [2] [µg/mL] | MIC [3] [µg/mL] | MIC [4] [µg/mL] | MIC [5] [µg/mL] | MIC [6] [µg/mL] | Activity [7] [log10CFU] | Ki [8] [nM] | MIC50 [9] [µg/mL] | MIC90 [9] [µg/mL] | MIC [10] [µg/mL] | Activity [11] [log10CFU] | MIC50 [12] [µg/mL] | MIC90 [12] [µg/mL] | MIC50 [13] [µg/mL] | MIC90 [13] [µg/mL] | MIC50 [14] [µg/mL] | MIC90 [14] [µg/mL] | MIC [15] [µg/mL]
1 | Nc1nc(/C(=N/OCC(=O)O)C(=O)N[C@@H]2C(=O)N3[C@@H]2SC[C@@H]2CC(=O)O[C@@]23C(=O)O)ns1 | 0.25 | 1 | 0.5 | 0.125 | 0.125 | 4 |  |  |  |  |  |  |  |  |  |  |  |  | 
2 | Nc1nc(/C(=N/OCC(=O)O)C(=O)N[C@@H]2C(=O)N3[C@@H]2[S@@+]([O-])C[C@@H]2CC(=O)O[C@@]23C(=O)O)cs1 (stereo in doubt) | 0.125 | 0.125 | 0.063 | 0.063 | 0.063 | 0.063 | 2.46 | > 60000 | 0.125 | 0.25 | 0.25 | 2.11 | 0.25 | 1 | 0.25 | 0.5 | 0.25 | 1 | 0.125
3 | Nc1nc(/C(=N/OCC(=O)O)C(=O)N[C@@H]2C(=O)N3[C@@H]2SC[C@@H]2CC(=O)O[C@@]23C(=O)O)c(Cl)s1 | 4 | 16 | 2 | 1 | 4 | 8 |  |  |  |  |  |  |  |  |  |  |  |  | 
4 | C[C@H](O/N=C(\C(=O)N[C@@H]1C(=O)N2[C@@H]1[S@@+]([O-])C[C@@H]1CC(=O)O[C@@]12C(=O)O)c1csc(N)n1)C(=O)O (stereo in doubt) | 1 | 1 | 0.5 | 0.25 | 0.5 | 0.25 |  |  |  |  |  |  |  |  |  |  |  |  | 
5 | C[C@@H](O/N=C(\C(=O)N[C@@H]1C(=O)N2[C@@H]1[S@@+]([O-])C[C@@H]1CC(=O)O[C@@]12C(=O)O)c1csc(N)n1)C(=O)O (stereo in doubt) | 0.5 | 0.5 | 0.125 | 0.125 | 0.25 | 0.25 |  |  |  |  |  |  |  |  |  |  |  |  | 
6 | Nc1nc(/C(=N/OCC(=O)O)C(=O)N[C@@H]2C(=O)N3[C@@H]2SC[C@@H]2CC(=O)O[C@@]23C(=O)O)cs1 (stereo in doubt) | 0.25 | 1 | 0.125 | 0.063 | 0.125 | 8 |  | 400 |  |  |  |  |  |  |  |  |  |  | 0.125
7 | C[C@@H](O/N=C(\C(=O)N[C@@H]1C(=O)N2[C@@H]1SC[C@@H]1CC(=O)O[C@@]12C(=O)O)c1csc(N)n1)C(=O)O (stereo in doubt) | 0.5 | 1 | 0.25 | 0.125 | 0.5 | 16 |  |  |  |  |  |  |  |  |  |  |  |  | 
8 | Nc1nc(/C(=N/OCC(=O)O)C(=O)N[C@@H]2C(=O)N3[C@@H]2[S@@+]([O-])C[C@@H]2CC(=O)O[C@@]23C(=O)O)ns1 | 8 | 4 | 2 | 1 | 1 | 1 |  |  |  |  |  |  |  |  |  |  |  |  | 
